Data from PubChem BioAssay (NCI).
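Step 1: Grow cells in 96-well plates. Step 2: Expose to compound for 48 hours at 5 concentrations. Step 3: Interpolate endpoints linearly; if unreached, use highest concentration. GI50 = concentration required for 50% inhibition of growth. TGI: concentration producing complete growth inhibition.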

Key:
Assay in all cases: DTP human tumour cell line panel, 48 h
[1] = tested on: SN12C renal
[2] = tested on: SK-MEL-5 melanoma
[3] = tested on: UACC-62 melanoma
[4] = tested on: DU-145 prostate
[5] = tested on: A549 NSCLC
[6] = tested on: NCI-H23 lung
[7] = tested on: OVCAR-3 ovarian
[8] = tested on: HOP-92 NSCLC
[9] = tested on: MALME-3M melanoma
[10] = tested on: M14 melanoma
[11] = tested on: CAKI-1 renal
[12] = tested on: OVCAR-5 ovarian
[13] = tested on: K-562 leukemia
[14] = tested on: SW-620 colon
[15] = tested on: NCI/ADR-RES ovarian
[16] = tested on: OVCAR-4 ovarian
[17] = tested on: EKVX NSCLC
[18] = tested on: SF-295 CNS
[19] = tested on: SF-539 CNS
[20] = tested on: SNB-75 CNS
[21] = tested on: PC-3 prostate
[22] = tested on: HCT-15 colon
[23] = tested on: IGROV1 ovarian
[24] = tested on: SK-OV-3 ovarian
[25] = tested on: A498 renal
[26] = tested on: UO-31 renal
[27] = tested on: HCT-116 colon
[28] = tested on: MDA-MB-435
[29] = tested on: NCI-H226 lung
[30] = tested on: HT29 colon
[31] = tested on: SK-MEL-2 melanoma
[32] = tested on: MDA-MB-231 breast
[33] = tested on: CCRF-CEM leukemia
[34] = tested on: MCF7 breast
[35] = tested on: HL-60(TB) leukemia
[36] = tested on: SNB-19 CNS
[37] = tested on: NCI-H522 lung
[38] = tested on: OVCAR-8 ovarian
[39] = tested on: HOP-62 NSCLC
[40] = tested on: LOX IMVI melanoma
[41] = tested on: TK-10 renal
[42] = tested on: 786-0 renal
[43] = tested on: SR leukemia
[44] = tested on: MOLT-4 leukemia
[45] = tested on: UACC-257 melanoma
[46] = tested on: COLO 205 colon
[47] = tested on: U251 CNS
[48] = tested on: BT-549 breast
[49] = tested on: T-47D breast
[50] = tested on: RPMI-8226 leukemia
[51] = tested on: NCI-H460 lung

Structure (SMILES): O=C1Nc2ccccc2/C1=C/C(=O)c1ccc(N2CCCC2)cc1
- GI50 [1]: 3.26 µM
- TGI [1]: > 100 µM
- GI50 [2]: 2.96 µM
- TGI [2]: > 100 µM
- GI50 [3]: 2.78 µM
- TGI [3]: 9.81 µM
- GI50 [4]: 3.2 µM
- TGI [4]: > 100 µM
- GI50 [5]: 3.34 µM
- TGI [5]: > 100 µM
- GI50 [6]: 5.2 µM
- TGI [6]: > 100 µM
- GI50 [7]: 1.79 µM
- TGI [7]: 4.83 µM
- GI50 [8]: 1.75 µM
- TGI [8]: 7.11 µM
- GI50 [9]: 2.84 µM
- TGI [9]: > 100 µM
- GI50 [10]: 2.28 µM
- TGI [10]: 22.3 µM
- GI50 [11]: 1.2 µM
- TGI [11]: > 100 µM
- GI50 [12]: 4.54 µM
- TGI [12]: > 100 µM
- GI50 [13]: 0.833 µM
- TGI [13]: > 100 µM
- GI50 [14]: 0.339 µM
- TGI [14]: 3.01 µM
- GI50 [15]: 2.15 µM
- TGI [15]: 6.5 µM
- GI50 [16]: 3.1 µM
- TGI [16]: > 100 µM
- GI50 [17]: 6.09 µM
- TGI [17]: > 100 µM
- GI50 [18]: 3.96 µM
- TGI [18]: > 100 µM
- GI50 [19]: 2.11 µM
- TGI [19]: 4.75 µM
- GI50 [20]: 2.05 µM
- TGI [20]: 6.91 µM
- GI50 [21]: 1.77 µM
- TGI [21]: 8.04 µM
- GI50 [22]: 0.686 µM
- TGI [22]: 9.7 µM
- GI50 [23]: 1.71 µM
- TGI [23]: 9.07 µM
- GI50 [24]: 3.4 µM
- TGI [24]: > 100 µM
- GI50 [25]: 3.45 µM
- TGI [25]: > 100 µM
- GI50 [26]: 2.14 µM
- TGI [26]: > 100 µM
- GI50 [27]: 1.56 µM
- TGI [27]: 4.24 µM
- GI50 [28]: 1.25 µM
- TGI [28]: > 100 µM
- GI50 [29]: 4.35 µM
- TGI [29]: > 100 µM
- GI50 [30]: 1.2 µM
- GI50 [31]: 3.87 µM
- TGI [31]: > 100 µM
- GI50 [32]: 3.73 µM
- TGI [32]: > 100 µM
- GI50 [33]: 2 µM
- TGI [33]: > 100 µM
- GI50 [34]: 2.05 µM
- TGI [34]: > 100 µM
- GI50 [35]: 1.24 µM
- TGI [35]: 4.56 µM
- GI50 [36]: 3.8 µM
- TGI [36]: > 100 µM
- GI50 [37]: 2.28 µM
- TGI [37]: > 100 µM
- GI50 [38]: 1.62 µM
- TGI [38]: 4.5 µM
- GI50 [39]: 2.47 µM
- TGI [39]: > 100 µM
- GI50 [40]: 1.73 µM
- TGI [40]: 3.56 µM
- GI50 [41]: 3.24 µM
- TGI [41]: > 100 µM
- GI50 [42]: 2.84 µM
- TGI [42]: > 100 µM
- GI50 [43]: 0.327 µM
- TGI [43]: 4.42 µM
- GI50 [44]: 2.02 µM
- GI50 [45]: 4.3 µM
- TGI [45]: > 100 µM
- GI50 [46]: 1.67 µM
- TGI [46]: 4.96 µM
- GI50 [47]: 2.89 µM
- TGI [47]: > 100 µM
- GI50 [48]: 3.27 µM
- TGI [48]: > 100 µM
- GI50 [49]: 2.12 µM
- TGI [49]: 6.38 µM
- GI50 [50]: 1.98 µM
- TGI [50]: 5.31 µM
- GI50 [51]: 2.86 µM
- TGI [51]: 8.17 µM
